Where two headings read alike, the source gives them in different places.
Experiments:
TYK2 JH2 = target: T1, TYK2 JH2 (Homo sapiens, UniProt P29597); test: TYK2 JH2 binding assay (KINOMEscan KdELECT competitive binding); conditions: TYK2 JH2 domain
T1 construct: purchased DiscoverX (KINOMEscan KdELECT service); host or cells: E. coli BL21-derived (T7 phage display) or HEK-293
Outline: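 Beads carrying a biotinylated ligand were mixed with tagged JH2 kinase and compound (11 points, 3-fold steps, 0.9% DMSO) and shaken 1 h at room temperature. After washing, kinase was released with 0.5 μM untagged ligand over 30 min and measured by qPCR to derive Kd.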

[1] = test system: JAK1/TYK2 pSTAT5 (Tyr694/699) in THP-1 cell line; test: IFNa-stimulated JAK1/TYK2 pSTAT5 (Tyr694/699) inhibition cellular assay, AlphaLISA; type: cell-based; conditions: Homo sapiens, THP-1 cells, AlphaLISA (Assay B)
Outline: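 Compound dilutions were dispensed first, and HBSS-suspended THP-1 cells were added on top (final top concentration 10000 nM, 6-fold series). After 1 h at 37 °C, IFNa (100 ng/mL as added) was applied for 30 min. Cells were then lysed and pSTAT5 was quantified by AlphaLISA.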

[2] = DiscoverX KINOMEscan KdELECT (Assay A), read-out: Biochemical TYK2_DiscoverX_JH2_BND_Kd
[3] = IFNa-stimulated, read-out: Cellular_THP1_IFNa-pSTATS_TYK2
[4] = KINOMEscan KdELECT (Assay A), read-out: Biochemical TYK2_JH2_Kd
[5] = IFNa-stimulated, read-out: Cellular THP1_IFNa-pSTATS_IC50
[6] = KINOMEscan KdELECT (Assay A), read-out: Biochemical TYK2_DiscoverX_JH2_BND_Kd
[7] = IFNa-stimulated pSTAT5 (Tyr694/699), read-out: Cellular_THP1_IFNa-pSTATS_TYK2

T1 sequence (P29597 589-875 limits assumed): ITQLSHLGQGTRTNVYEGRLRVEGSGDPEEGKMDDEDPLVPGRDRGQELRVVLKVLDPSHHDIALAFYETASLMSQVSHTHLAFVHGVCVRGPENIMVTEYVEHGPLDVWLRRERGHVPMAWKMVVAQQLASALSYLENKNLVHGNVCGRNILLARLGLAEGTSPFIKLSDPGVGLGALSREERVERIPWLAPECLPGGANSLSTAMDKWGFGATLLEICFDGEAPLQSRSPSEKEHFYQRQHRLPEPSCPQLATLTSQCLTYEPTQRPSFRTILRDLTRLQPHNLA

| Kd (TYK2 JH2; [2]) [nM] | IC50 [1, 3] [nM] | Kd (TYK2 JH2; [6]) [nM] | further results | SMILES |
| --- | --- | --- | --- | --- |
| ≤ 100 | > 500 |  |  | CNc1ncc(-c2nc3ccc(N4C[C@@H](C)O[C@@H](C)C4)cn3n2)c2cc(N)ncc12 [Example 553, 4-(6-((2R,6S)-2,6-dimethylmorpholino)-[1,2,4]triazolo[1,5-a]pyridin-2-yl)-N^1-methyl-2,7-naphthyridine-1,6-diamine] |
| ≤ 100 | ≤ 500 |  |  | CNc1ncc(C#Cc2ccc(OC)cc2)c2cc(NC(=O)C3CC3)ncc12 [Example 591, N-(5-((4-methoxyphenyl)ethynyl)-8-(methylamino)-2,7-naphthyridin-3-yl)cyclopropanecarboxamide] |
|  |  |  | Kd (TYK2 JH2; [4]): ≤ 100 nM; IC50 [1, 5]: > 500 nM | CNc1ncc(-c2ccccc2F)c2cc(NC(=O)C3CC3)ncc12 [Example 17, N-(5-(2-fluorophenyl)-8-(methylamino)-2,7-naphthyridin-3-yl)cyclopropanecarboxamide] |
|  |  | ≤ 100 | IC50 [1, 7]: ≤ 500 nM | CNc1ncc(C#Cc2cccc3c2OCCC3)c2cc(NC(=O)C3CC3)ncc12 [Example 1014, N-(5-(chroman-8-ylethynyl)-8-(methylamino)-2,7-naphthyridin-3-yl)cyclopropanecarboxamide] |
|  |  | ≤ 100 | IC50 [1, 7]: ≤ 500 nM | CNc1ncc(-c2nc3ccc(C4=CCOCC4)cn3n2)c2cc(NC(=O)C3CC3)ncc12 [Example 1034] |
|  | ≤ 500 | ≤ 100 |  | CNc1ncc(C#Cc2ccc(CN3CCOCC3)cc2)c2cc(NC(=O)[C@H]3C[C@H]3C)ncc12 [Example 821, (1S,2R)-2-methyl-N-(8-(methylamino)-5-((4-(morpholinomethyl)phenyl)ethynyl)-2,7-naphthyridin-3-yl)cyclopropane-1-carboxamide] |
|  | ≤ 500 | ≤ 100 |  | CNc1ncc(C#Cc2ccc(CN3CC(OC)C3)cc2)c2cc(NC(=O)C3CC3)ncc12 [Example 816, N-(5-((4-((3-methoxyazetidin-1-yl)methyl)phenyl)ethynyl)-8-(methylamino)-2,7-naphthyridin-3-yl)cyclopropanecarboxamide] |
| ≤ 100 | ≤ 500 |  |  | CCNc1ncc(-c2nc3ccc(OC)cn3n2)c2cc(NC(=O)C3CC3)ncc12 [Example 516, N-(8-(ethylamino)-5-(6-methoxy-[1,2,4]triazolo[1,5-a]pyridin-2-yl)-2,7-naphthyridin-3-yl)cyclopropanecarboxamide] |
| ≤ 100 | ≤ 500 |  |  | CNc1ncc(-c2nc3cc(OC)ccc3o2)c2cc(NC(=O)[C@H]3C[C@H]3C)ncc12 [Example 384, (1S,2R)-N-(5-(5-methoxybenzo[d]oxazol-2-yl)-8-(methylamino)-2,7-naphthyridin-3-y1)-2-methylcyclopropane-1-carboxamide] |
| ≤ 100 | ≤ 500 |  |  | CNc1ncc(-c2nc3ccc(Cl)cc3o2)c2cc(NC(=O)C3CC3)ncc12 [Example 219, N-(5-(6-chlorobenzo[d]oxazol-2-yl)-8-(methylamino)-2,7-naphthyridin-3-yl)cyclopropanecarboxamide] |
|  | ≤ 500 | ≤ 100 |  | CNc1ncc(-c2ccc(OCc3ccncc3)cc2)c2cc(NC(=O)C3CC3)ncc12 [Example 867, N-(8-(methylamino)-5-(4-(pyridin-4-ylmethoxy)phenyl)-2,7-naphthyridin-3-yl)cyclopropanecarboxamide] |
|  | ≤ 500 | ≤ 100 |  | CNc1ncc(-c2ccc(Oc3ncn(C)n3)cc2)c2cc(NC(=O)C3CC3)ncc12 [Example 865, N-(5-(4-((1-methyl-1H-1,2,4-triazol-3-yl)oxy)phenyl)-8-(methylamino)-2,7-naphthyridin-3-yl)cyclopropanecarboxamide] |
| ≤ 100 | ≤ 500 |  |  | CNc1ncc(-c2nc3ccc(OC4CC4)cn3n2)c2cc(NC(=O)C3CC3)ncc12 [Example 494, N-(5-(6-cyclopropoxy-[1,2,4]triazolo[1,5-a]pyridin-2-yl)-8-(methylamino)-2,7-naphthyridin-3-yl)cyclopropanecarboxamide] |
| ≤ 100 | ≤ 500 |  |  | CNc1ncc(-c2nc3cc(N4CCO[C@@H](C)C4)ccc3o2)c2cc(NC(=O)[C@H]3C[C@H]3C(F)F)ncc12 (single isomer, unassigned) [Example 414] |
|  | ≤ 500 | ≤ 100 |  | CNc1ncc(-c2nc3cc(OC)ccc3o2)c2cc(NC(=O)C3CC3)nnc12 [Example 888, N-(5-(5-methoxybenzo[d]oxazol-2-yl)-8-(methylamino)pyrido[3,4-c]pyridazin-3-yl)cyclopropanecarboxamide] |
|  |  |  | Kd (TYK2 JH2; [4]): 100 to 1000 nM; IC50 [1, 5]: > 500 nM | CNc1ncc(-c2ccccc2)c2cc(NC(C)C)ncc12 [Example 162, N^6-isopropyl-N^1-methyl-4-phenyl-2,7-naphthyridine-1,6-diamine] |
|  |  | ≤ 100 | IC50 [1, 7]: ≤ 500 nM | CNc1ncc(C#Cc2ccc3[nH]ccc3c2)c2cc(NC(=O)C3CC3)ncc12 [Example 1015, N-(5-((1H-indol-5-yl)ethynyl)-8-(methylamino)-2,7-naphthyridin-3-yl)cyclopropanecarboxamide] |
|  |  |  | Kd (TYK2 JH2; [4]): ≤ 100 nM; IC50 [1, 5]: > 500 nM | CNc1ncc(-c2ccc3c(c2)OCO3)c2cc(NC(=O)C3CC3)ncc12 [Example 21, N-(5-(benzo[d][1,3]dioxol-5-yl)-8-(methylamino)-2,7-naphthyridin-3-yl)cyclopropanecarboxamide] |
| ≤ 100 | ≤ 500 |  |  | CNc1ncc(-c2nc3cc(COC)ccc3o2)c2cc(NC(=O)C3CC3)ncc12 [Example 248, N-(5-(5-(methoxymethyl)benzo[d]oxazol-2-yl)-8-(methylamino)-2,7-naphthyridin-3-yl)cyclopropanecarboxamide] |
|  | ≤ 500 | ≤ 100 |  | CNc1ncc(CCc2ccc(S(C)(=O)=O)cc2)c2cc(NC(=O)C3CC3)ncc12 [Example 839, N-(8-(methylamino)-5-(4-(methylsulfonyl)phenethyl)-2,7-naphthyridin-3-yl)cyclopropanecarboxamide] |
|  | ≤ 500 | ≤ 100 |  | CNc1ncc(C#Cc2ccc3nc4n(c3c2)CCC=C4)c2cc(NC(=O)C3CC3)ncc12 [Example 808, N-(5-((1,2-dihydrobenzo[4,5]imidazo[1,2-a]pyridin-8-yl)ethynyl)-8-(methylamino)-2,7-naphthyridin-3-yl)cyclopropanecarboxamide] |
|  | ≤ 500 | ≤ 100 |  | CNc1ncc(C#Cc2ccc3c(c2)C(F)(F)C(=O)N3C)c2cc(NC(=O)C3CC3)ncc12 [Example 972, N-[5-[2-(3,3-difluoro-1-methyl-2-oxo-indolin-5-yl)ethynyl]-8-(methylamino)-2,7-naphthyridin-3-yl]cyclopropanecarboxamide] |
| ≤ 100 | ≤ 500 |  |  | [2H]C([2H])([2H])Nc1ncc(-c2nc3cc(OC)ccc3o2)c2cc(NC(=O)C3CC3)ncc12 [Example 362, N-(5-(5-methoxybenzo[d]oxazol-2-yl)-8-((methyl-d3)amino)-2,7-naphthyridin-3-yl)cyclopropanecarboxamide] |
|  |  |  | Kd (TYK2 JH2; [4]): ≤ 100 nM; IC50 [1, 5]: > 500 nM | CNc1ncc(-c2ccsn2)c2cc(NC(=O)C3CC3)ncc12 [Example 82, N-(5-(isothiazol-3-yl)-8-(methylamino)-2,7-naphthyridin-3-yl)cyclopropanecarboxamide] |
|  |  |  | Kd (TYK2 JH2; [4]): ≤ 100 nM; IC50 [1, 5]: > 500 nM | CNc1ncc(-c2[nH]ncc2C)c2cc(NC(=O)C3CC3)ncc12 [Example 40, N-(5-(4-methyl-1H-pyrazol-5-yl)-8-(methylamino)-2,7-naphthyridin-3-yl)cyclopropanecarboxamide] |

— patent US20240025906A1 (NEURON23, INC., priority 2022, published 2024)
